Experimental data published in ChEMBL document CHEMBL1921749, “5-Lipoxygenase-activating protein (FLAP) inhibitors. Part 4: development of 3-[3-tert-butylsulfanyl-1-[4-(6-ethoxypyridin-3-yl)benzyl]-5-(5-methylpyridin-2-ylmethoxy)-1H-indol-2-yl]-2,2-dimethylpropionic acid (AM803), a potent, oral, once daily FLAP inhibitor” (J Med Chem, 2011).

Columns and labels:
[1] = Volume of distribution in Beagle dog at 2 mg/kg, iv; type: ADME, organism-based, Canis lupus familiaris; parameters: dose 2 mg/kg, route intravenous; conditions: in vivo
[2] = Oral bioavailability in Beagle dog at 5 mg/kg; type: ADME, organism-based, Canis lupus familiaris; conditions: in vivo
[3] = Plasma protein binding in human; type: ADME, cell-free; conditions: read-out: PPB (converted)
Leukotriene C4 synthase = target: T1, Leukotriene C4 synthase (Homo sapiens, UniProt Q16873); assay: Inhibition of LTC4 synthase
T1 sequence (Q16873 whole entry): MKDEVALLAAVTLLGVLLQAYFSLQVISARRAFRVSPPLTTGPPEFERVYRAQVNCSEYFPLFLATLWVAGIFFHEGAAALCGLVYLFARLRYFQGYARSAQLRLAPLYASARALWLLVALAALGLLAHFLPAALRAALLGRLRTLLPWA

Cytochrome P450 2D6 = Cytochrome P450 2D6 (Homo sapiens, UniProt P10635); assay: Inhibition of human CYP2D6; type: ADME
Sequence of Cytochrome P450 2D6 (P10635 whole entry): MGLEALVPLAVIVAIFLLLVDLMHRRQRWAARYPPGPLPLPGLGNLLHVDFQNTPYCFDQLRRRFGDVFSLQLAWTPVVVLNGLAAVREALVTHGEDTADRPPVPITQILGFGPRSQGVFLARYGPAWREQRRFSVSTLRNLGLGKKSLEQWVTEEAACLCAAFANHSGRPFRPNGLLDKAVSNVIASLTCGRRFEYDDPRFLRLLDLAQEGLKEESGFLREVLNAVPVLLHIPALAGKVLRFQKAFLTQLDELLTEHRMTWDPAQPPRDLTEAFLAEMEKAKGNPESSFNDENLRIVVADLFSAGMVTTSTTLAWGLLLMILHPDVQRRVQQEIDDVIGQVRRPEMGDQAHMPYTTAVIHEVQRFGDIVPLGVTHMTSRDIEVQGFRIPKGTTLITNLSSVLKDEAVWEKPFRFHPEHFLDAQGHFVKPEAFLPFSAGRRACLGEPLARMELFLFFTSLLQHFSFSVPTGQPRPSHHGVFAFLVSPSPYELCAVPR

[4] = target: T2, Arachidonate 5-lipoxygenase-activating protein (Rattus norvegicus, UniProt P20291); assay: Inhibition of FLAP in rat whole blood assessed as inhibition of calcium ionophore A23187-induced LTB4 production preincubated for 4 hrs by ELISA; type: tissue-based
T2 sequence (P20291 whole entry): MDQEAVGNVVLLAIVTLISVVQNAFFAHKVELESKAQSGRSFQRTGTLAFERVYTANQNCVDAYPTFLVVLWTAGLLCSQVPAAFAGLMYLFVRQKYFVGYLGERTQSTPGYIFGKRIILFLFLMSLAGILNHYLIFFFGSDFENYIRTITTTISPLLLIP

Rattus norvegicus [5] = assay: Antiinflammatory activity in rat assessed as inhibition of calcium ionophore A23187-induced LTB4 production in bronchoalveolar lavage fluid at 3 mg/kg, po administered 4 hrs prior to A23187 challenge; type: functional, Lung; parameters: scale not given: the % may be the effect or the level left
[6] = target: T3, Arachidonate 5-lipoxygenase-activating protein (Homo sapiens, UniProt P20292); assay: Inhibition of FLAP in human peripheral leukocytes assessed as inhibition of calcium ionophore A23187-induced LTB4 production after 10 mins by ELISA; type: cell-based
T3 sequence (P20292 whole entry): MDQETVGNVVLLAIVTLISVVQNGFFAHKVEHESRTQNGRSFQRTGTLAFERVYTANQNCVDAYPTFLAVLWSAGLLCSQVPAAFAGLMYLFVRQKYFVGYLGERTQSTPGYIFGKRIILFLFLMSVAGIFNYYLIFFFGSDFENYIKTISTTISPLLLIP

[7] = target: T3, Arachidonate 5-lipoxygenase-activating protein; assay: Inhibition of FLAP in human whole blood assessed as inhibition of calcium ionophore A23187-induced LTB4 production preincubated for 15 mins by ELISA
Rattus norvegicus [8] = assay: Antiinflammatory activity in rat assessed as inhibition of calcium ionophore A23187-induced CysLT production in bronchoalveolar lavage fluid at 3 mg/kg, po administered 4 hrs prior to A23187 challenge; type: functional, Lung; parameters: scale not given: the % may be the effect or the level left
[9] = target: T4, Leukotriene A-4 hydrolase (Homo sapiens, UniProt P09960); assay: Inhibition of LTA4 […]
T4 sequence (P09960 whole entry): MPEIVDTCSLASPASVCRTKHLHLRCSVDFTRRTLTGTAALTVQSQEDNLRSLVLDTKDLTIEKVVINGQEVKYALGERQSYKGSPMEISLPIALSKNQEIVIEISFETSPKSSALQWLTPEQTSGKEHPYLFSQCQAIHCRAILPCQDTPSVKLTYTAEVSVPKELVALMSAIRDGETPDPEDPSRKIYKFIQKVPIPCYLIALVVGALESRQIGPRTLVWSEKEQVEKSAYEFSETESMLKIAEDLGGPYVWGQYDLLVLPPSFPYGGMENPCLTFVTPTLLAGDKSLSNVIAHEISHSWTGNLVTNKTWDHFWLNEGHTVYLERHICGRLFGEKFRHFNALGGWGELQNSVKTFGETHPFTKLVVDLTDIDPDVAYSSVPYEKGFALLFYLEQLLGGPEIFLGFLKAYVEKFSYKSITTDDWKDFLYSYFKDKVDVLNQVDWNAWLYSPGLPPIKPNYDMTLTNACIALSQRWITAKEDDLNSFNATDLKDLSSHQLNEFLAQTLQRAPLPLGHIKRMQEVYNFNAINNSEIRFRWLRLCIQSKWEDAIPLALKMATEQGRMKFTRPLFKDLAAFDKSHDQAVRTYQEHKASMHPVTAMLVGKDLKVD

[10] = Clearance in Beagle dog at 2 mg/kg, iv; type: ADME, organism-based, Canis lupus familiaris; parameters: dose 2 mg/kg, route intravenous; conditions: in vivo
[11] = Plasma concentration in rat at 3 mg/kg, po after 16 hrs; type: ADME, organism-based; parameters: dose 3 mg/kg, route oral
[12] = Plasma concentration in rat at 3 mg/kg, po after 4 hrs; type: ADME, organism-based; parameters: dose 3 mg/kg, route oral
Plasma = assay: Plasma protein binding in dog; type: ADME, cell-free, Canis lupus familiaris
Cytochrome P450 3A4 [13] = target: T5, Cytochrome P450 3A4 (Homo sapiens, UniProt P08684); assay: Inhibition of human CYP3A4; type: ADME
T5 sequence (P08684 whole entry): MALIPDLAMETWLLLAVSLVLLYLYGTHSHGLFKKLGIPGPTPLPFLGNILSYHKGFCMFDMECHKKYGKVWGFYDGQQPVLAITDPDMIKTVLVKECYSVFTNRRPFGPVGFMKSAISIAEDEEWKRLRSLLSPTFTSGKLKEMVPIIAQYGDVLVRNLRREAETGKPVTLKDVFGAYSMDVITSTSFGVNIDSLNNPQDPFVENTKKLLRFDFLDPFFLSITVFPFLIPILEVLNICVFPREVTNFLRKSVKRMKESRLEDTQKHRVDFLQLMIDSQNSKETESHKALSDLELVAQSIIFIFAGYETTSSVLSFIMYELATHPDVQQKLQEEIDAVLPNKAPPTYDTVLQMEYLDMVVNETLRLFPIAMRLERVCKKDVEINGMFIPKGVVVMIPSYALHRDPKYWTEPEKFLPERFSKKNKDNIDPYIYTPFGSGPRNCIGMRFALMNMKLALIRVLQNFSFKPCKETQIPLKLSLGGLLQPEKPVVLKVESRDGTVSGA

[14] = target: T3, Arachidonate 5-lipoxygenase-activating protein; assay: Inhibition of FLAP in human peripheral leukocytes assessed as inhibition of calcium ionophore A23187-induced LTB4 production after 3 hr by ELISA in presence of 0.5% human serum albumin; type: cell-based
Cytochrome P450 3A4 [15] = target: T5, Cytochrome P450 3A4; assay: Time-dependent inhibition of CYP3A4 at 10 uM; type: ADME

CCOc1ccc(-c2ccc(Cn3c(CC(C)(C)C(=O)O)c(SC(C)(C)C)c4cc(OCc5ccc(C)cn5)ccc43)cc2)cn1 [FIBOFLAPON]
Vd [1]: 0.2 L/kg | bioavailability [2]: 51% | fraction unbound [3]: 0.005 | IC50 (Leukotriene C4 synthase): 36 µM | IC50 (Cytochrome P450 2D6): > 40 µM | IC50 [4]: 0.016 µM | Activity (Rattus norvegicus [5]): 100% | IC50 [6]: 0.0007 µM | IC50 [7]: 0.506 µM | Activity (Rattus norvegicus [8]): 80% | IC50 [9]: > 100 µM | clearance [10]: 0.6 mL/min/kg | concentration at 16 h [11]: 3 nM | concentration at 4 h [12]: 1000 nM | PPB (Plasma): 99.7% | IC50 (Cytochrome P450 3A4 [13]): > 50 µM | IC50 [14]: 0.004 µM | TDI (Cytochrome P450 3A4 [15]): Not Active
